Assay results as given in US9758477B2, “Sulfamoylbenzamide derivatives as antiviral agents against HBV infection” (priority 2011, dated 2017).

Experiments:
Type in all cases: cell-based, Hepatitis B virus (HBV)
encapsidated pgRNA = experiment: Encapsidated pgRNA by Northern blot in AML12HBV10 cells; conditions: 2 days, FIG. 3 panel C, Bay41-4109 5 μM, AT-61 25 μM
Description: (§1) To obtain mechanistic insight of the compounds of present invention against HBV, AML12HBV10 cells cultured in the 12-well plates were treated with a series of concentrations of DVR-1, DVR-56 or DVR-23 for two days in the absence of tetracycline (Guo et al., 2007). As positive controls, the cells were also treated with Bay41-4109 (5 μM) or AT-61 (25 μM), the known HBV nucleocapsid assembly effectors that either bind to HBV core protein dimmer to misdirect its interaction and prevent capsid formation (Bay41-4109) (Deres et al., 2003: Stray and Zlotnick, 2006), or interact with a core assembly intermediate and promote the formation of empty capsids (AT-61) (Feld et al., 2007; Katen et al., King et al., 1998). The amounts of intracellular viral mRNA, encapsidated pgRNA, capsids and nucleocapsid-associated HBV DNA were analyzed with the methods detailed below.
Determination of encapsidated pgRNA: AML12HBV10 cells were lysed by addition of 600 μl of lysis buffer (50 mM Tris-HCl [pH 7.5], 1 mM EDTA, 150 mM NaCl, 1% NP-40) into each well of 12-well plates. The nuclei were removed by centrifugation at 5,000 g for 10 minutes. One-half of the sample was mixed with 6 U of micrococcal nuclease (Pharmacia) and 15 μl of 100 mM CaCl2 and incubated for 15 minutes at 37° C. to digest free nucleic acids. The reaction was stopped with 6 μl of 0.5 M EDTA, and capsids were precipitated by adding 125 μl of 35% polyethylene glycol 8000 in 1.75 M NaCl to the reaction and incubating in ice for 30 minutes, followed by centrifugation at 6,000 g for 10 minutes at 4° C. Pellets were re-suspended in 50 μl of TNE buffer (10 mM Tris-HCl [pH 8], 100 mM NaCl, 1 mM EDTA), pgRNA was extracted by the addition of 1 ml of Trizol reagent. The encapsidated pgRNA were electrophoresed through a 2.2 M formaldehyde-1% agarose gel, transferred to a nylon membrane, and immobilized by UV cross-linking (Stratagene). Hybridization was performed with an alpha-^32P-UTP labeled riboprobe specific for plus strand of HBV genome.

HBV capsids = experiment: Viral capsids by particle gel assay; conditions: AML12HBV10 cells, 2 days, FIG. 3 panel B; Bay41-4109 5 μM, AT-61 25 μM
Description: as §1
Procedures of viral capsids and nucleocapsid-associated DNA analysis: HepDES19 cells were lysed by addition of 300 μl buffer containing 10 mM Tris-HCl (pH7.6), 100 mM NaCl, 1 mM EDTA and 0.1% NP-40 to each well of 12-well plate. […] HBV capsids were detected by probing the membrane with an antibody against HBV core protein (DAKO). […] The viral DNA was detected by hybridization with a α-^32P-UTP (800 Ci/mmol, Perkin Elmer) labeled minus strand specific full-length HBV riboprobe (Xu et al.).

[1] = tested on: capsid-associated HBV DNA; experiment: Nucleocapsid-associated HBV DNA and DNA replication intermediates (particle gel hybridization, Southern blot); conditions: AML12HBV10 cells, 2 days, FIG. 3 panels D and E; Bay41-4109 5 μM, AT-61 25 μM
Description: as §1
Procedures of viral capsids and nucleocapsid-associated DNA analysis: HepDES19 cells were lysed by addition of 300 μl buffer containing 10 mM Tris-HCl (pH7.6), 100 mM NaCl, 1 mM EDTA and 0.1% NP-40 to each well of 12-well plate. […] HBV capsids were detected by probing the membrane with an antibody against HBV core protein (DAKO). […] The viral DNA was detected by hybridization with a α-^32P-UTP (800 Ci/mmol, Perkin Elmer) labeled minus strand specific full-length HBV riboprobe (Xu et al.). […]

COC(=O)C1=C(C)NC(c2ncc(F)cc2F)=N[C@H]1c1ccc(F)cc1Cl [Bay41-4109]
completely abolished: level of encapsidated pgRNA (encapsidated pgRNA) | capsid formation (HBV capsids) | capsid-associated HBV DNA / DNA synthesis [1]
